Active and inactive are the calls of the source.
Tests used:
[1] = molecular target: T1, Methionyl-tRNA synthetase, putative (Trypanosoma brucei brucei, UniProt Q38C91); type: functional, Trypanosoma brucei brucei strain 927/4 GUTat10.1
T1 sequence (Q38C91 whole entry): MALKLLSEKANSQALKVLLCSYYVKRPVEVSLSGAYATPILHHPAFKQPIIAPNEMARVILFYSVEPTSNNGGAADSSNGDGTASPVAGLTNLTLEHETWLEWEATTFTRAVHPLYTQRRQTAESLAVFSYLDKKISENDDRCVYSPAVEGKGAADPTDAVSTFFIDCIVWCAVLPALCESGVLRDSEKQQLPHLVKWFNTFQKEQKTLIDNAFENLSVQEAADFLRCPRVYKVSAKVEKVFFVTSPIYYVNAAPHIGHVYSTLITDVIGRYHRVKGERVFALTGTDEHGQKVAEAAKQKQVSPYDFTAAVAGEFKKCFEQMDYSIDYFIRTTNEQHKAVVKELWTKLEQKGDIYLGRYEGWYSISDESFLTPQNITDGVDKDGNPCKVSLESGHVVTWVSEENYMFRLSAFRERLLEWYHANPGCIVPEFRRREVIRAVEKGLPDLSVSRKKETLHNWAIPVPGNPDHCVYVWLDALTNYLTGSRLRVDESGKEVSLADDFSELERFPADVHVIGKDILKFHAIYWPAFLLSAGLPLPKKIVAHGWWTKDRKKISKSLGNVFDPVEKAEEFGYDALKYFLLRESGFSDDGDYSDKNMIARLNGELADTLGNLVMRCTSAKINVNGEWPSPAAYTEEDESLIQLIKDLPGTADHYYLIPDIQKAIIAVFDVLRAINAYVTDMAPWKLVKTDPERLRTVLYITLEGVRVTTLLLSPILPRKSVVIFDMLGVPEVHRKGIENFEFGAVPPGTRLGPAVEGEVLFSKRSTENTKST

[2] = molecular target: T1, Methionyl-tRNA synthetase, putative; type: functional, Trypanosoma brucei brucei strain 927/4 GUTat10.1; remark: listed apart in the source
[3] = molecular target: T2, Heat shock factor protein 1 (Mus musculus, UniProt P38532); experiment: HSF1 potentiators in luciferase reporter cells, confirmation, cell-based, NIH3T3, luminescence, dose retest (AID 435004); type: functional;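 note: stress induced by proteasome inhibitor MG132 added 30 min after compound; luciferase reporter driven by HSF1 response element in NIH3T3 cells; actives raise luminescence as potentiators of the MG132 stress response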
T2 sequence (P38532 whole entry): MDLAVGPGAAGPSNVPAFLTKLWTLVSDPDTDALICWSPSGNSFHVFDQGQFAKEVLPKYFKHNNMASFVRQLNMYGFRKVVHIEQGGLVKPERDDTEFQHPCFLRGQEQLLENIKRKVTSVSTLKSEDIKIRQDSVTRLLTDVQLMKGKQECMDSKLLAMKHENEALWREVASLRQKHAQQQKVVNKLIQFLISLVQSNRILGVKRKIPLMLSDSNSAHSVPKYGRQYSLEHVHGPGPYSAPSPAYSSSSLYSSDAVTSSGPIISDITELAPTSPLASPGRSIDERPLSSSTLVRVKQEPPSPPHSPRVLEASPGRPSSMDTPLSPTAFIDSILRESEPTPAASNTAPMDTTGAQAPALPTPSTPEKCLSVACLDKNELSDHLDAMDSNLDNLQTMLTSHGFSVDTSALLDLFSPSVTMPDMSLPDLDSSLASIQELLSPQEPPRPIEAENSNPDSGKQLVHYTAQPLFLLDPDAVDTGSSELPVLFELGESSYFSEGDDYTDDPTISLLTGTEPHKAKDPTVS

[4] = Counterscreen for inhibitors of Trypanosoma brucei methionyl tRNA synthetase (MetRS): Luminescence-based cell-based high throughput dose response assay to identify compounds that are cytotoxic to Jurkat human T lymphocyte cells.; type: functional
[5] = cells
[6] = molecular target: T3, Oxysterols receptor LXR-beta (Homo sapiens, UniProt P55055); type: functional, cell-based;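 note: Cell-based luminescence dose-response assay of agonist activity at LXR, run as a confirmatory counterscreen to a daf-12 agonist screen; HEK293 cells with Gal4-LXR fusion and GAL4-driven luciferase reporter; agonist potency from rising luciferase signal of a Gal4-LXR reporter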
T3 sequence (P55055 whole entry): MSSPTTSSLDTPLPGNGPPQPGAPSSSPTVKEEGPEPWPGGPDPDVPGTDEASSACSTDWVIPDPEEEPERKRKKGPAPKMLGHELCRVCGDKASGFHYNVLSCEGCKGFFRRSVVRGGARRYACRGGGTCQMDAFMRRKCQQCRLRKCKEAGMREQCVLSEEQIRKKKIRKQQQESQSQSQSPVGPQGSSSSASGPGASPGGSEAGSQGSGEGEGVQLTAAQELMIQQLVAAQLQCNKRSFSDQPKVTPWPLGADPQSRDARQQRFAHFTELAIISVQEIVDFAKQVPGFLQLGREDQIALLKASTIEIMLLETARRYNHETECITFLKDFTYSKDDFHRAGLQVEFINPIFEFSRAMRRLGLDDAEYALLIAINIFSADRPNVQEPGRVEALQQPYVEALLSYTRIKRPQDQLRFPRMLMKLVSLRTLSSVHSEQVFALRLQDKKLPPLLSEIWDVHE

[7] = HepG2 cell cytotoxicity, dose response, cytotoxicity control, ATP luminescence, cherry-pick, activator set 2 (AID 1053143); type: functional, cell-based
[8] = inhibitors of SNCA 5'UTR-driven reporter translation, confirmation, H4 neuroglioma cells, luminescence (AID 1988); type: functional, cell-based
[9] = Luminescence Cell-Based Dose Response HTS to Identify Inhibitors of 5'UTR Stem-Loop Driven Prion Protein mRNA Translation in H4 Neuroglioblastoma Cells. [Related pubchem assays: 1827 (Project Summary), 1813 (Primary HTS)]; type: functional
[10] = inhibitors of firefly luciferase expression or activity, dose response, H4 neuroglioma cells, luminescence (AID 1990); type: functional, cell-based
[11] = C. albicans growth with fluconazole, confirmation, fluorescence, retest (AID 2467); type: functional, cell-based
[12] = system: H9c2; experiment: cells; type: functional, cell-based; settings: Rattus norvegicus, H9c2, Myocardium;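 note: confirmatory concentration-response retest of ultra-high-throughput screening hits for modulation of myocardial damage; cell death induced by hydrogen peroxide oxidative stress; compound pretreatment for 60 min then peroxide exposure for 2 h; potency is for protecting the cells against peroxide damage rather than for killing them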
[13] = cells; type: functional, cell-based
[14] = cells; type: functional, cell-based; remark: listed apart in the source
[15] = NIH-3T3 fibroblast cytotoxicity, dose response, cytotoxicity control, cell-based, fluorescence, Alamar Blue, secondary assay (AID 2327); type: functional;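 note: NIH-3T3 mouse fibroblasts cultured with fluconazole at 8 µg/mL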
[16] = inhibitors of intracellular T. cruzi replication, confirmation, NIH3T3 host cells, beta-gal luminescence (AID 2044); type: functional, cell-based;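 note: intracellular parasites grown in NIH/3T3 mouse fibroblasts as host cells; luminescent beta-galactosidase reporter signal from transgenic T. cruzi replicating inside host cells; inhibitors lower the luminescence signal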
[17] = molecular target: Albumin (Bos taurus, UniProt P02769); experiment: Counterscreen for inhibitors of T-cell receptor (TCR)-CD3 interaction: Fluorescence-based biochemical high throughput dose response assay to identify inhibitors of T-cell receptor (TCR)-CD3 interaction using a TAMRA-labeled BSA probe.; type: functional
[18] = cytotoxicity toward NIH3T3 fibroblasts, dose response, counter-screen, cell-based, ATP luminescence, mouse fibroblasts (AID 2010); type: functional;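 note: cells exposed to compound for about 90 hours before reading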
[19] = molecular target: T4, Streptokinase A (Streptococcus pyogenes serotype M1, UniProt P10520); experiment: S. pyogenes streptokinase expression inhibitors, potency, dose response, plasminogen activation absorbance, OD405 (AID 1914); type: functional, Streptococcus pyogenes M1 GAS;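 note: secreted streptokinase activity via plasminogen activation per viability signal from cell pellet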
T4 sequence (P10520 whole entry): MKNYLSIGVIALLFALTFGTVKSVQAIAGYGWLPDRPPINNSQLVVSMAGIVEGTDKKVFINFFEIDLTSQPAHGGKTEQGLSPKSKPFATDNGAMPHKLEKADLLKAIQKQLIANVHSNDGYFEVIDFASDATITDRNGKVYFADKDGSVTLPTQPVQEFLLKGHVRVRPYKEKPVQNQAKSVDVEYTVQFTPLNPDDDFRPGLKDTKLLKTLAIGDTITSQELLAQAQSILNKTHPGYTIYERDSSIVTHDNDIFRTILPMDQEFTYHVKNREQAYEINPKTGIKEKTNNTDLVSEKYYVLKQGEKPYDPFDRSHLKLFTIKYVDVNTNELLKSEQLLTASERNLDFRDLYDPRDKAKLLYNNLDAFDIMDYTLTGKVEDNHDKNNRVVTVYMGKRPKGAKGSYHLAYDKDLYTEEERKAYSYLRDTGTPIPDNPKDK

[20] = system: Streptococcus sp. 'group A'; experiment: growth inhibition of control SK(-) GAS strain, dose response, counter-screen for streptokinase expression inhibitor project, luminescence, kanamycin, BacTiterGlo, confirmation (AID 1900); type: functional, organism-based
[21] = system: Streptococcus; experiment: Group A Streptococcus viability loss, dose response, counter-screen for streptokinase expression inhibitor project, luminescence, BacTiterGlo (AID 1915); type: functional, organism-based;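 note: potency for reduction of bacterial viability or growth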
[22] = M. tuberculosis H37Rv growth inhibitors, H37Rv strain (AID 1626); type: functional
[23] = A549 cell cytotoxicity, dose response, cytotoxicity control, plate reader, cherry-pick, antagonist series (AID 743412); type: functional, cell-based
[24] = MC4R antagonists, dose response, counter-screen for LGR2 antagonist project, cell-based, plate reader, cherry pick (AID 743444); type: functional;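 note: transfected HEK 293 cells stimulated with alpha-MSH peptide; potency of inhibitors of the alpha-MSH evoked signal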
[25] = HepG2 cell cytotoxicity, dose response, cytotoxicity control, plate reader, cherry-pick, antagonist series (AID 743416); type: functional, cell-based
[26] = LGR2 antagonists, dose response, cell-based, HEK293, CRE-luciferase reporter, cherry pick, set 2 (AID 743343); type: functional;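 note: transfected cells were stimulated with diluted bursicon conditioned medium after compound addition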
[27] = HEK293 cell cytotoxicity, dose response, cytotoxicity control, plate reader, cherry-picked samples (AID 743446); type: functional, cell-based
[28] = Luminescence Cell-Based Dose Response HTS to Identify Activators of Luciferase Translation or Activity in H4 […] Cells. [Related pubchem assays: 1829 (Project Summary), 1814 (Primary HTS)]; type: functional
[29] = cytotoxicity in OVCAR8 ovarian cancer cells, dose response, PAX8 project, cell-based, plate reader, dry powder samples (AID 743197); type: functional; settings: OVCAR-8
[30] = molecular target: Paired box protein Pax-8 (Homo sapiens, UniProt Q06710); experiment: inhibitors of PAX8-driven TPO luciferase reporter, dose response, RMG-I cells, cherry-pick (AID 687027); type: functional, cell-based;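 note: luciferase reporter driven by Pax8 target thyroperoxidase promoter measured by SteadyGlo luminescence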
[31] = HeLa cell cytotoxicity, dose response, cytotoxicity control for MgcRacGAP inhibitor project (AID 624300); type: functional
[32] = molecular target: T5, Rac GTPase-activating protein 1 (Homo sapiens, UniProt Q9H0H5); experiment: MgcRacGAP GTPase-activating activity inhibitors, confirmation, biochemical, ADP Hunter fluorescence, primary and confirmatory (AID 624330); type: functional
T5 sequence (Q9H0H5 whole entry): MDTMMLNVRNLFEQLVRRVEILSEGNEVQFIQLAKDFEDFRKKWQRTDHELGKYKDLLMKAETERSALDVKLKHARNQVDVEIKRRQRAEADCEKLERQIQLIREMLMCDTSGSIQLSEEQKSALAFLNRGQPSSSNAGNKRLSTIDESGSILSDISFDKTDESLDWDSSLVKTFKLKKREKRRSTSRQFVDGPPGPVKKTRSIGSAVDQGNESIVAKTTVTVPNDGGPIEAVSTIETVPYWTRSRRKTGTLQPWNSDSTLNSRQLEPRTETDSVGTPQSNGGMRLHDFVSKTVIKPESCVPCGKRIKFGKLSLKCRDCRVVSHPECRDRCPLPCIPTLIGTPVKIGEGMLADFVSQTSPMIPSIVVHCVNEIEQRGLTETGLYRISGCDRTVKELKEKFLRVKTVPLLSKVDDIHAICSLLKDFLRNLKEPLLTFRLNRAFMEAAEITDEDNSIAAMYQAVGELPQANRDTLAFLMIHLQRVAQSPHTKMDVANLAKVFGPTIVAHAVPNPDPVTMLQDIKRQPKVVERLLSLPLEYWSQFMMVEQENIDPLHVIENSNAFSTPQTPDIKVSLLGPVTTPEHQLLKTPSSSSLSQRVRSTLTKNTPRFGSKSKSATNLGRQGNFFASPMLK

Sequence of Albumin (P02769 whole entry): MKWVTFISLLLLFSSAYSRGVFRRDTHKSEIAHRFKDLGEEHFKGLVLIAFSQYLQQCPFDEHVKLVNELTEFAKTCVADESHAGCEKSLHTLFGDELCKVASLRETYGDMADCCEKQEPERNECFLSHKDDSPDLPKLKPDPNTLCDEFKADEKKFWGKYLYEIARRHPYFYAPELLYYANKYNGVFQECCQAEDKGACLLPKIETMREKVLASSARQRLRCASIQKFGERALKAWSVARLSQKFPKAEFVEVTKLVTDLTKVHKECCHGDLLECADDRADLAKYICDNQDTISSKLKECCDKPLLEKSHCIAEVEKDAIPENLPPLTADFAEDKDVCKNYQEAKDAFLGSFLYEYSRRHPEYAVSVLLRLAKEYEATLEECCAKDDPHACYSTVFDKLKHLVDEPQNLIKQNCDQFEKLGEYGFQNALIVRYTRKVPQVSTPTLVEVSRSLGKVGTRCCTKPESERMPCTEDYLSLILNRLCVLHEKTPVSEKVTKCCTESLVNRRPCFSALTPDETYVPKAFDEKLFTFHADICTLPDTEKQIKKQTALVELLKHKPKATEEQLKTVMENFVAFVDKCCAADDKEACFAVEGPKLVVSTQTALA
Sequence of Paired box protein Pax-8 (Q06710 whole entry): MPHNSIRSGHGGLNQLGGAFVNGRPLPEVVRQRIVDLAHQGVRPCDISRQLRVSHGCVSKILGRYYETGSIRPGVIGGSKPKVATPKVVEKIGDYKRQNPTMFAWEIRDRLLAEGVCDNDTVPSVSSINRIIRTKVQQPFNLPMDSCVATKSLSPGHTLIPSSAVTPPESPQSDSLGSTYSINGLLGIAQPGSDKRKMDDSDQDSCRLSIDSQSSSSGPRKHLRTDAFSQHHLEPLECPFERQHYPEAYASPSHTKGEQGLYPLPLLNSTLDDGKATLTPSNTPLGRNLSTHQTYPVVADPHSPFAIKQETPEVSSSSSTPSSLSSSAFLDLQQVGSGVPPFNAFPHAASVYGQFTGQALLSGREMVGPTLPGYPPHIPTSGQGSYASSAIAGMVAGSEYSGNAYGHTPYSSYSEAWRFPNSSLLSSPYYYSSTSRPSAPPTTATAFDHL

## CCOC(=O)c1cccc(NC(=O)Cn2c(CC(=O)NC)nc3ccccc32)c1
[1]
  IC50: 2.05 µM (active)
[2]
  IC50: 6.01 µM (active)
[3]
  EC50: > 260 µM (inactive)
[4]
  IC50: 83.3 µM (inactive)

## Cc1sc(NC(=O)c2ccc(Cl)s2)c(C(N)=O)c1C
[5]
  EC50: > 67.5 µM (inactive)
[6]
  EC50: > 67.5 µM (inactive)

## Cc1cc(C)cc(NC(=O)Nc2ccc(N3CCCCC3)cc2)c1
[7]
  AC50: 26 µM (active)

## COc1cc2ccccc2cc1C(=O)NNC(=O)c1ccccc1O
[8]
  EC50: 16.1 µM (active)
[9]
  EC50: 14.9 µM (active)
[10]
  EC50: > 60 µM (not active)
[11]
  EC50: > 38 µM (not active)
[12]
  IC50: > 79 µM (inactive)
[13]
  EC50: > 350 µM (not active)
[14]
  EC50: > 350 µM (not active)
[15]
  EC50: > 150 µM (inactive)
[16]
  EC50: > 60 µM (not active)
[17]
  IC50: > 94.2 µM (inactive)
[18]
  EC50: > 60 µM (not active)

## COc1ccc(-c2nnc(SC(C(=O)c3c[nH]c4ccccc34)c3ccccc3)n2N)cc1OC (centres undefined)
[19]
  EC50: > 150 µM (not active)
[1]
  IC50: 99 µM (inactive)
[2]
  IC50: 33.8 µM (inactive)
[20]
  EC50: 8.65 µM (active)
[21]
  EC50: 102 µM (active)
[22]
  IC50: > 100 µM (active)
[4]
  IC50: 83.3 µM (inactive)

## Cc1cccc(-c2noc(-c3ccc4c(c3)OCO4)n2)c1
[23]
  AC50: > 52 µM (inactive)
[24]
  AC50: 12.1 µM (active)
[25]
  AC50: > 52 µM (inactive)
[26]
  AC50: 9.54 µM (active)
[27]
  AC50: > 52 µM (inactive)

## Cc1ccsc1C(=O)OCc1csc(-c2ccccc2)n1
[5]
  EC50: > 67.5 µM (inactive)
[6]
  EC50: > 67.5 µM (inactive)

## Cn1c(=O)c(/C=C/c2ccccc2)nc2ccccc21
[5]
  EC50: > 67.6 µM (inactive)
[28]
  EC50: 0.174 µM (active)
[6]
  EC50: > 67.6 µM (inactive)

## Cc1cccc(-c2ccc([C@H]3[C@@H](CO)N4CCCCN(S(=O)(=O)c5cccc(C)c5)C[C@@H]34)cc2)c1
[29]
  AC50: > 70 µM (inactive)
[30]
  AC50: 8.23 µM (active)

## Cc1onc(-c2ccccc2)c1C(=O)NN=Cc1cc(Cl)cc(Cl)c1O
[17]
  IC50: > 94 µM (inactive)

## Cc1cccc(-c2ccc([C@H]3[C@@H](CO)N4CCCCN(C(=O)c5ccc6c(c5)OCO6)C[C@@H]34)cc2)c1
[23]
  AC50: 26.4 µM (active)
[24]
  AC50: 15.4 µM (active)
[26]
  AC50: 14.2 µM (active)
[27]
  AC50: 15.6 µM (active)

## Oc1ccc(/C=N/Nc2nn3cnnc3c3ccccc23)cc1
[31]
  CC50: 100 µM (active)
[32]
  IC50: 22.2 µM (active)
